Assay results reported in article PMC7318222, “A Family of Water‐Immiscible, Dipolar Aprotic, Diamide Solvents from Succinic Acid” (Chemsuschem, 2020).
“Also recorded” adds a separate entry of the source.

How the values were obtained:
Miscibility with water = type: physicochemical; conditions: this work
ESRE = ESRE CALUX assay (unfolded protein response); type: cell-based, human; set-up: key: –: no effect observed up to the highest test concentration; conditions: cell signaling pathway assay, 24 h exposure
Source text: Six of the CALUX assays (TCF through p53) detect activation of several cellular signaling pathways, which are indicative of general stress and acute toxicity, but also a range of more specific types of toxicity, including reproductive toxicity. […]
2-methylimidazole 99.0%, zinc(II) nitrate hexahydrate ≥99.0%, para-cymene 99.0%, 1,4-dioxane 99.8% (anhydrous), 4-nitroaniline ≥99.0%, 1-octanol ≥99.0%, diglyme ≥99.0%, DMSO-d6 (99.8% D) and chloroform-d (99.8% D) were purchased from Sigma-Aldrich. Toluene ≥99.0%, hexane ≥99.5%, DCM ≥99.5%, chloroform ≥99.5%, DMSO ≥99.0% were purchased from VWR. N,N-diethyl-4-nitroaniline ≥98.0% was purchased from Alfa Aeser. Cyrene was supplied by Circa group. N-butylpyrrolidinone was supplied by Eastman chemicals. N,N-dimethylformamide 99.9% and N,N-dimethylacetamide 99.9% were purchased from Fischer. The flakes of Ultrason® E3020 P Polyarylethersulfone of 55,000 Da were obtained from INGE.BASF, Germany. The CALUX cell lines have been described previously.[1] They are based on human U2-OS cells (ATCC, HTB-96) stably transfected with an expression construct for the full-length human receptor under investigation, and a reporter construct consisting of multimerized responsive elements for the cognate receptor coupled to a minimal promoter element (TATA) and a luciferase gene. Cells were maintained as described previously,[2] using cell culture media and supplements from Fisher Scientific as described in the experimental procedures section. […]
In vitro reporter gene assays
The automated CALUX assays were carried out similarly as described earlier,[12] with some adaptations. In brief, the assay was performed in CO2 independent medium (Fisher Scientific, […]
supplement (Fisher Scientific, 11574466), 10 U/mL penicillin and 10 µg/mL streptomycin. A cell suspension in assay medium was made of 1 × 10^5cells/mL, and white 384-wells plates were seeded with 30 µl cell suspension/well. After 24 h, exposure medium was prepared. A dilution series in 0.5log unit increments of each test compound (in DMSO) was added to a 96-wells plate containing assay medium (2% v/v). Of this exposure mixture, 30 µl was added to the assay plates containing the CALUX cells, resulting in a final DMSO concentration of 1%. Additionally, DMSO blanks and a full dose response curve of the relevant reference compound were included on each plate. All samples were tested in triplicate. The preparation of the compound dilution series as well as the exposure of the cells were performed on a Hamilton StarLET liquid handling robot coupled to a Cytomat incubator.
Directly after exposure, plates were sealed with non-breathing plate seals (Plate sealer, easy seal transparent; Greiner-Bio-One, 676001). After 24 h the exposure medium was removed using an EL406 washer-dispenser (BioTek) and 10 µl/well triton lysisbuffer was added by the EL406.
Subsequently, the luciferase signal was measured in a luminometer (InfinitePro coupled to a Connect Stacker, both TECAN). In order to be able to detect receptor antagonism, several assays were also performed in antagonistic mode. The assay procedure was as described above, with the only exception that the EC50 concentration of the reference agonist was present during the exposure.
The luminometer data was analysed as follows; the average of the triplicate wells was determined, and the average blank (DMSO) value was subtracted. […] For antagonist- and cytotoxicity experiments, PC20 values were determined instead, which was defined […]

Water misc. (Miscibility with water)	SMILES	LEC ESRE (ESRE)
no^[a]	CCCCN(CC)C(=O)CCC(=O)N(CC)CCCC [EBSA, N,N′‐diethyl‐N,N′‐dibutylsuccindiamide]	–
no^[a]	CCCCN(C)C(=O)CCC(=O)N(C)CCCC [MBSA, N,N′‐dimethyl‐N,N′‐dibutylsuccindiamide]	−2.4 Log M
miscible; also recorded: yes^[a]	CCCCN1CCCC1=O [NBP, N‐Butylpyrrolidinone, reference compound]	–
no^[a]	CCCCN(CCCC)C(=O)CCC(=O)N(CCCC)CCCC [TBSA, N,N,N′,N′‐tetrabutylsuccindiamide]	–
yes^[a]	CN1CCCC1=O [NMP, N‐methyl‐2‐pyrrolidone, reference compound]	–
